The values below come from patent US8962660B2 (Bristol-Myers Squibb Company, priority 2013, dated 2015).

As usually defined, the EC50 is the concentration at which the effect is half-maximal.

The assay has as its target T1, human GPR120 (Homo sapiens, UniProt Q5NUL3).
T1 construct: expressed in transfected cells; host or cells: CHOA12 cells
T1 sequence (Q5NUL3 1-361): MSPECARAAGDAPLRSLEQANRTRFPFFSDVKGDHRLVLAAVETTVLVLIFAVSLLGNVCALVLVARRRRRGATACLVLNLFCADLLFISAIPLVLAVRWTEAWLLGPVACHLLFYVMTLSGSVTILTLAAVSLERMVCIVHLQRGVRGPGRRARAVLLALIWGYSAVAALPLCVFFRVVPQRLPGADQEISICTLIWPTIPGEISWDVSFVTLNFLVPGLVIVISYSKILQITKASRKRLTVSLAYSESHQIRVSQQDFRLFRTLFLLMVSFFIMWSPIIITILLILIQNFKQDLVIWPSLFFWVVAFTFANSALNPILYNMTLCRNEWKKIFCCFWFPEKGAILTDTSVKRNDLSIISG
Briefly: GPR120 pERK AlphaScreen SureFire assay (human). Type of assay: cell-based. The settings on record: CHO cells stably transfected with short form of human GPR120. An excerpt: GPR120 activity was monitored by measuring phosphorylation of ERK (pERK), since G protein receptors are known to activate the ERK signaling cascade either directly and/or through recruitment of arrestin that serves as a scaffold for downstream signaling events.
GPR120 pERK AlphaScreen SureFire Assay
The human and mouse GPR120-mediated intracellular phosphorylated ERK assays were established using CHOA12 cells stably transfected with the short form of human or mouse GPR120 receptor. Cells were cultured in growth medium consisting of F-12 media (Invitrogen Cat. #11765) with 5% Charcoal/Dextran FBS (Invitrogen Cat. #12676-029), 500 μg/mL GENETICIN® (Life Technologies Cat. #10131-027) and 250 μg/mL Zeocin (Invitrogen Cat. #R250-01). Cells were cryo preserved at a concentration of 2×10^7 cells/mL, in 90% Charcoal/Dextran FBS and 10% DMSO, and frozen in liquid nitrogen at a low passage number.
For the pERK assay, 2×10^7 cells/mL cryopreserved human and mouse cells were thawed rapidly in a 37° C. water bath and added to a T-225 flask containing 50 mL growth medium. The flasks were placed in a tissue culture incubator overnight (37° C., 5% CO2). The next day, cells were harvested with trypsin (Gibco Cat. #25300-054), resuspended in serum-containing growth medium and counted using a Cellometer and volume adjusted to a concentration of 0.6×10^6cells/mL. Cells were plated into 384-well clear bottom tissue culture plates (BD Cat. #353962) at 50 μL/well, for a density of 30,000 cells/well using a MULTIDROP® and incubated for 16-18 hours (overnight) at 37° C. with 5% CO2. The next day, cells were serum starved in 30 μL of F-12 media without any serum or antibiotics for 2 hours at 37° C.
Test compounds were 3-fold, 11-point serially diluted in DMSO in a REMP assay plate (Matrix Cat. #4307) by Tecan and 5 μL was transferred into an ECHO source plate (LABCYTE® Cat. #LC-0200). Cells were then stimulated with 50 nL of compound dilutions using ECHO liquid handler for 7 minutes at 37° C. Compounds ranged from final assay concentrations of 33.33 μM to 0.56 nM.
The media was then dumped and cells lysed with 20 μL of 1× Lysis buffer from the AlphaScreen SureFire Phospho-ERK 1/2 Kit (Perkin Elmer Cat. #6760617M). The lysis buffer was diluted 5-fold with water before use. The plate was agitated on a shaker for 10 minutes after which 2 μL was transferred into a 384-well white proxiplate (Perkin Elmer Cat. #6008289). The SureFire assay reagent mix was prepared by mixing 60 parts Reaction Buffer, 10 parts Activation Buffer, 1 part Donor Beads, 1 part Acceptor Beads (Perkin Elmer Cat. #TGRES10K). 3.5 μL/well of this reagent mix was manually added to the proxiplate with a multichannel pipettor. Plates were spun down at 1000 rpm for 2 minutes, followed by light-protected incubation at room temperature for 2 hours. The plates were read on the Alpha-technology compatible Envision multilabel plate reader using AlphaScreen protocol according to manufacturer's specifications. The agonist effect of compounds was expressed as 100×(average sample−average blank)/(average total−average blank) where sample is the luminescence activity in the presence of test compound, blank is equal to the luminescence activity in the presence of DMSO control and the total is signal induced by 50 μM linolenic acid as reference compound. Activation data for the test compound over a range of concentrations was plotted as percentage activation of the test compound (100%=maximum response). After correcting for background, EC50 values were determined The EC50 is defined as the concentration of test compound which produces 50% of the maximal response and was quantified using the 4 parameter logistic equation to fit the data.
The human and mouse GPR120-mediated intracellular phosphorylated ERK assays were also established using CHO-K1 cells stably transfected with the short form of human or mouse GPR120 receptor. […]
On the technique in general: In Alpha technology, singlet oxygen from a donor bead excites a nearby acceptor bead.
Take `COc1ccc(Oc2cccc(C34CCC(CCOCC(=O)O)(CC3)CO4)c2)cc1` [Example 42, 2-(2-(1-(3-(4-methoxyphenoxy)phenyl)-2-oxabicyclo [2.2.2]octan-4-yl)ethoxy)acetic acid]: the EC50 was determined as 370 nM.
For `Cc1cccc(Oc2cccc(C34CCC(CCOCC(=O)O)(CC3)CO4)c2)c1` [Example 43, 2-(2-(1-(3-(m-tolyloxy)phenyl)-2-oxabicyclo [2.2.2]octan-4-yl)ethoxy)acetic acid], a half-maximal effect (EC50) was put at 550 nM.
To `O=C(O)COCCC12CCC(c3cccc(Oc4cccc(Cl)c4)c3)(CC1)OC2` [Example 44, 2-(2-(1-(3-(3-chlorophenoxy)phenyl)-2-oxabicyclo[2.2.2]octan-4-yl)ethoxy) acetic acid] belongs 450 nM; to `O=C(O)COCCC12CCC(c3cccc(Oc4cccc(F)c4)c3)(CC1)OC2` [Example 45, 2-(2-(1-(3-(3-fluorophenoxy)phenyl)-2-oxabicyclo[2.2.2]octan-4-yl)ethoxy) acetic acid], 280 nM.
To `N#Cc1cccc(Oc2cccc(C34CCC(CCOCC(=O)O)(CC3)CO4)c2)c1` [Example 46, 2-(2-(1-(3-(3-Cyanophenoxy)phenyl)-2-oxabicyclo[2.2.2]octan-4-yl)ethoxy)acetic acid] belongs 2570 nM; to `O=C(O)COCCC12CCC(c3cccc(OS(=O)(=O)C(F)(F)F)c3)(CC1)OC2` [Example 47, 2-(2-(1-(3-(Trifluoromethylsulfonyloxy)phenyl)-2-oxabicyclo[2.2.2]octan-4-yl)ethoxy)acetic acid], 1030 nM.
`Cc1nc(-c2cccc(C34CCC(CCOCC(=O)O)(CC3)CO4)c2)no1` [Example 48, 2-(2-(1-(3-(5-Methyl-1,2,4-oxadiazol-3-yl)phenyl)-2-oxabicyclo[2.2.2]octan-4-yl)ethoxy)acetic acid] came in with an EC50 of 6760 nM.
The molecule `O=C(O)COCCC12CCC(c3cccc(C(F)(F)F)c3)(CC1)OC2` [Example 49, 2-(2-(1-(3-(Trifluoromethyl)phenyl)-2-oxabicyclo[2.2.2]octan-4-yl)ethoxy)acetic acid] displayed an EC50 of 3310 nM.
For `O=C(O)COCCC12CCC(c3cccc(Cc4ccccc4)c3)(CC1)OC2` [Example 50, 2-(2-(1-(3-Benzylphenyl)-2-oxabicyclo[2.2.2]octan-4-yl)ethoxy)acetic acid], the EC50 amounted to 1360 nM. Against the preceding molecule, the EC50 is about 2.4-fold lower.
For the molecule `O=C(O)COCCC12CCC(c3cccc(OCC4CCC4)c3)(CC1)OC2` [Example 51, 2-(2-(1-(3-(Cyclobutylmethoxy)phenyl)-2-oxabicyclo[2.2.2]octan-4-yl)ethoxy)acetic acid], the midpoint of the response, the EC50, lay at 1090 nM.
Then `O=C(O)COCCC12CCC(c3cccc(OCC4CCCCC4)c3)(CC1)OC2` [Example 52, 2-(2-(1-(3-(Cyclohexylmethoxy)phenyl)-2-oxabicyclo[2.2.2]octan-4-yl)ethoxy)acetic acid], with 4340 nM; and `O=C(O)COCCC12CCC(c3cc(F)cc(OCC(F)(F)F)c3)(CC1)OC2` [Example 54, 2-(2-(1-(3-Fluoro-5-(2,2,2-trifluoroethoxy)phenyl)-2-oxabicyclo[2.2.2]octan-4-yl)ethoxy)acetic acid], with 3470 nM; and `O=C(O)COCCC12CCC(c3cc(F)cc(Oc4cccc(F)c4)c3)(CC1)OC2` [Example 55, 2-(2-(1-(3-Fluoro-5-(3-fluorophenoxy)phenyl)-2-oxabicyclo[2.2.2]octan-4-yl)ethoxy) acetic acid], with 330 nM.
Then `OCC(O)CCC12CCC(c3cccc(Oc4ccccc4)c3)(CC1)OC2` (stereo not shown) [Example 56, 4-(1-(3-Phenoxyphenyl)-2-oxabicyclo[2.2.2]octan-4-yl)butane-1,2-diol], with 610 nM.
Then `OCCCCC12CCC(c3cccc(Oc4ccccc4)c3)(CC1)OC2` [Example 57, 4-(1-(3-Phenoxyphenyl)-2-oxabicyclo[2.2.2]octan-4-yl)butan-1-ol], with 1880 nM.
Take `O=C(O)C1CC1CCC12CCC(c3cccc(OC4CCCCO4)c3)(CC1)OC2` (stereo not shown) [Example 61, 2-(2-(1-(3-(Tetrahydro-2H-pyran-2-yloxy)phenyl)-2-oxabicyclo[2.2.2]octan-4-yl)ethyl) cyclopropanecarboxylic acid]: the EC50 was determined as 5230 nM.
Then `COc1ccc(Oc2cccc(C34CCC(CC[C@@H]5C[C@H]5C(=O)O)(CC3)CO4)c2)cc1` [Example 71, (1R,2R)-2-(2-(1-(3-(4-methoxy-phenoxy)phenyl)-2-oxabicyclo[2.2.2]octan-4-yl)ethyl)cyclo-propane carboxylic acid], with 1170 nM; and `O=C(O)[C@@H]1C[C@H]1CCC12CCC(c3cccc(Oc4cc(F)cc(F)c4)c3)(CC1)OC2` [Example 72, (1R,2R)-2-(2-(1-(3-(3,5-difluorophenoxy)phenyl)-2-oxabicyclo[2.2.2]octan-4-yl)ethyl) cyclopropanecarboxylic acid], with 490 nM.
To `O=C(O)[C@@H]1C[C@H]1CCC12CCC(c3cccc(Oc4ccc(F)c(F)c4)c3)(CC1)OC2` [Example 73, (1R,2R)-2-(2-(1-(3-(3,4-difluorophenoxy)phenyl)-2-oxabicyclo[2.2.2]octan-4-yl)ethyl) cyclopropanecarboxylic acid] belongs 540 nM; to `O=C(O)[C@@H]1C[C@H]1CCC12CCC(c3cccc(Oc4ccc(O)cc4)c3)(CC1)OC2` [Example 74, (1R,2R)-2-(2-(1-(3-(4-hydroxy-phenoxy)phenyl)-2-oxabicyclo[2.2.2]octan-4-yl)ethyl)cyclo-propanecarboxylic acid], 2530 nM.
Regarding `O=C(O)COCCC12CCC(c3cccc(Oc4ccc(F)c(F)c4)c3)(CC1)OC2` [Example 75, 2-(2-(1-(3-(3,4-difluoro-phenoxy)phenyl)-2-oxabicyclo[2.2.2]octan-4-yl)ethoxy)acetic acid], the response was half-maximal at 400 nM (EC50). This EC50 is about 6.3-fold lower than that of the molecule before.
Molecule `O=C(O)COCCC12CCC(c3cccc(Oc4cc(F)cc(F)c4)c3)(CC1)OC2` [Example 76, 2-(2-(1-(3-(3,5-difluorophenoxy)phenyl)-2-oxabicyclo[2.2.2]octan-4-yl)ethoxy)acetic acid] came in with an EC50 of 420 nM.
To `Cc1ccc(Oc2cccc(C34CCC(CCOCC(=O)O)(CC3)CO4)c2)cc1F` [Example 77, 2-(2-(1-(3-(3-fluoro-4-methylphenoxy)phenyl)-2-oxabicyclo[2.2.2]octan-4-yl)ethoxy)acetic acid] belongs 230 nM.
`Cc1cc(Oc2cccc(C34CCC(CCOCC(=O)O)(CC3)CO4)c2)ccc1F` [Example 78, 2-(2-(1-(3-(4-fluoro-3-methylphenoxy)phenyl)-2-oxabicyclo[2.2.2]octan-4-yl)ethoxy)acetic acid] gave an EC50 of 490 nM.
For `O=C(O)COCCC12CCC(c3cc(F)cc(Oc4ccc(F)c(F)c4)c3)(CC1)OC2` [Example 79, 2-(2-(1-(3-(3,4-difluorophenoxy)-5-fluorophenyl)-2-oxabicyclo [2.2.2]octan-4-yl)ethoxy) acetic acid], the EC50 was found to be 550 nM.
